Results as given in patent US5739157A, “Diastereomeric pure trifluoromethyl ketone peptide derivatives as inhibitors of human leukocyte elastase” (Zeneca Limited, priority 1994, dated 1998).
Like-named read-outs stand apart in the source and are kept apart here.

Experiments:
[1] = target: T1, human neutrophil elastase (HNE) (Homo sapiens, UniProt P08246); assay: Acute Hemorrhagic Assay: HNE-induced lung hemorrhage; type: in vivo, Syrian hamsters; settings: hamster, hamsters, 50 μg/animal HNE intratracheally, read-out: ED50, inhibition of HNE-induced hemorrhage
T1 sequence (P08246 30-267): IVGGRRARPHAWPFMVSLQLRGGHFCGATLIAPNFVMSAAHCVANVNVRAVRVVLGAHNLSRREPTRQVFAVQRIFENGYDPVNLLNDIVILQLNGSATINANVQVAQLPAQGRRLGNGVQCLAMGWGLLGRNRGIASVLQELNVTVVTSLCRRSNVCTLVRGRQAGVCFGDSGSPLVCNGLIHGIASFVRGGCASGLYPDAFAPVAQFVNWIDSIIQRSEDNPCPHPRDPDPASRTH
Method: This assay relies on monitoring only the amount of hemorrhage in the lung following intratracheal administration of human neutrophil elastase (HNE). Hemorrhage is quantified by disrupting erythrocytes recovered in lung lavage fluid and comparing that to dilutions of whole hamster blood. […] Male Syrian hamsters (fasted for 16-18 hours prior to use) are lightly anaesthetised with Brevital sodium (30 mg/kg i.p.). […] Four hours after enzyme administration, the animals are killed with an overdose of pentobarbital sodium, the thorax opened and the lungs and heart removed and the lungs cleared of extraneous material. The excised lungs are lavaged with three changes of 2 ml PBS via a tracheal cannula. The recovered lavages are pooled, the volumes (about 5 mL) are recorded and the lavages stored at 4° C. until assayed. […] The optical densities (OD) of the disrupted lavages and blood samples are determined at 540 nm. The (μL blood equivalents)/(mL lavage) are determined by comparing the OD of the test samples with the OD of the standard curve prepared from whole hamster blood. The total μL equivalents of blood recovered is determined by multiplying recovered lavage volume by the (μL blood equivalents)/(mL lavage) for each sample.

[2] = Hygroscopicity of the anhydrous crystalline form; type: physicochemical
[3] = Epimeric stability in the solid state; type: physicochemical; settings: anhydrous form
[4] = administered in the above in vivo tests (hamsters)

Compound: COc1ccc(C(=O)N[C@H](C(=O)N2CCC[C@H]2C(=O)N[C@H](C(=O)C(F)(F)F)C(C)C)C(C)C)cc1 [compound of the invention, (S)-1-[(S)-2-(4-methoxybenzamido)-3-methylbutyryl]-N-[(S)-2-methyl-1-(trifluoroacetyl)propyl]pyrrolidine-2-carboxamide]
- ED50 ([1]; i.v. administration): 0.59 mg/kg
- ED50 ([1]; oral dosing): 5.2 mg/kg
- hygroscopicity [2]: non-hygroscopic
- epimeric stability [3]: good epimeric stability
- overt toxicity [4]: No overt toxicity
